Values of other authors, collected in US20230066947A1, “Method for the augmentation of substance abuse therapies using cannabinoid formulations” (priority 2021, published 2023).
Read-outs that look alike come from different tables or passages of the source.

Assays:
[1] = target: T1, COX-2 (Homo sapiens, UniProt P35354); conditions: compared with common NSAIDS
T1 sequence (P35354 18-604): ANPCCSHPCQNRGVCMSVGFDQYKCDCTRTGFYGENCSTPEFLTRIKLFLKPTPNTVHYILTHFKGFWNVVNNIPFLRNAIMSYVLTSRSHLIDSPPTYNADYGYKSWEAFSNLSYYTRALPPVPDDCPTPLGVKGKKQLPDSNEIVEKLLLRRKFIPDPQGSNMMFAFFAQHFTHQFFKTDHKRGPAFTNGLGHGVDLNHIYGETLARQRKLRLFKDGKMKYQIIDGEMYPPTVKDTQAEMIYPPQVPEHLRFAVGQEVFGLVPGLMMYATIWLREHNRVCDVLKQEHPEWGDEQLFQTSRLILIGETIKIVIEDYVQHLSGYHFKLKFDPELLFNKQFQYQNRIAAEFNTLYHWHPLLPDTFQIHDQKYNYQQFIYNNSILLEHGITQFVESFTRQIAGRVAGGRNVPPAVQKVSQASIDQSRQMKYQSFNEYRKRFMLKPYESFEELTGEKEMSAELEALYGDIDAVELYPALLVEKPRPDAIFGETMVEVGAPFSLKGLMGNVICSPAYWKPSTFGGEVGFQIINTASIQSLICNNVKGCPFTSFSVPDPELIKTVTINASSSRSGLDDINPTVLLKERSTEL

[2] = system: specific serotonin receptor linked to anti-nausea and anti-anxiety effects

C=C(C)[C@@H]1CCC(C)=C[C@H]1c1c(O)cc(CCCCC)c(C(=O)O)c1O [CBDA]
COX-2 inhibitor behavior [1]: same COX-2 inhibitor behavior | affinity to bind to a specific serotonin receptor [2]: far greater affinity | bioavailability (intraperitoneal administration): 80% | bioavailability (orally ingested): approximately 20%
